This is an account of results in US10954216B2, “BMP-signal-inhibiting compound” (RIKEN, priority 2016, dated 2021).

By IC50 is commonly meant the midpoint of a concentration-inhibition curve. Usually inhibition stands for the drop in the measured response relative to a control, in per cent.

For assay [1], the system named is BMP signal in MDA-231-D-BREFluc/Rluc cells. Put plainly: BMP signal inhibitory effect (AlphaScreen SureFire SMAD1 p-Ser463/465, BMP-6 stimulation). The format is cell-based. The conditions noted are these: BMP-6 stimulated MDA-231-D-BREFluc/Rluc cells, phospho-SMAD1 AlphaScreen; read-out: IC50. In short, it runs like this: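 MDA-231-D-BREFluc/Rluc cells were pretreated with compound for 2 h at 37° C, then stimulated with BMP-6 for 30 min. SMAD1 p-Ser463/465 in lysates was measured by AlphaScreen SureFire.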
On the technique in general: Alpha assays give light when donor and acceptor beads are brought close together.

For assay [2], the target named is human ALK3 (Homo sapiens (Human), UniProt P36894). In words: ALK3 enzyme inhibitory effect (33P-ATP kinase assay, Reaction Biology). It is filed as biochemical. To be noted: for inhibition at 0.3 µM: ALK3, test compound 300 nM, read-out: Inhibition rate at 300 nM; for inhibition at 0.37 µM: ALK3, test compound 370 nM (asterisk footnote), read-out: inhibition rate at 370 nM. The text has this: (§1) ALK Enzyme Inhibitory Effect
(§2) Evaluation conditions were described in the following web pages. http://www.reactionbiology.corrilwebapps/site/Kinase_Assay_Protocol.aspx http://www.reactionbiology.corrilwebapps/site/KinaseDetail.aspx?page=Kinases&id=1

Assay [3] addresses human ALK2 (Homo sapiens (Human), UniProt Q04771). Put plainly: ALK2 enzyme inhibitory effect (33P-ATP kinase assay, Reaction Biology). It is filed as biochemical. The conditions noted are these: ALK2, 10 μM ATP, 20 μM casein.
Description: as §1, §2

The target of assay [4] is human ALK6 (Homo sapiens (Human), UniProt O00238). In words: ALK6 enzyme inhibitory effect (33P-ATP kinase assay, Reaction Biology). It is filed as biochemical. The conditions noted are these: for inhibition at 0.3 µM: ALK6, test compound 300 nM, read-out: Inhibition rate at 300 nM; for inhibition at 0.37 µM: ALK6, test compound 370 nM (asterisk footnote), read-out: inhibition rate at 370 nM.
Description: as §1, §2

Chain of human ALK6 (O00238 14-502): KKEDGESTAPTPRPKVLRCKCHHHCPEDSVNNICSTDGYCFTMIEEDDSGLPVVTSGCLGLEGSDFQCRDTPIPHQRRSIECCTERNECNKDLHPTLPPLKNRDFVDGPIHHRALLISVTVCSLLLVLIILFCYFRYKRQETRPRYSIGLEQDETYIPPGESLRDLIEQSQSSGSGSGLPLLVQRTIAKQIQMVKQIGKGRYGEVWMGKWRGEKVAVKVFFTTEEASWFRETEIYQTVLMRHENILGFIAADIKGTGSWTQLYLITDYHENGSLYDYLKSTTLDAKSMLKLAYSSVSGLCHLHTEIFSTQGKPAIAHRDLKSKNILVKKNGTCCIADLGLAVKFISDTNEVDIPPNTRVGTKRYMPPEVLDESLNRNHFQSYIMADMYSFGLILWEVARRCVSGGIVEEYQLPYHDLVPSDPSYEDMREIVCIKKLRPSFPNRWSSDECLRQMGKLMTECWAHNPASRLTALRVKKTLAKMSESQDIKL
Chain of human ALK3 (P36894 24-532): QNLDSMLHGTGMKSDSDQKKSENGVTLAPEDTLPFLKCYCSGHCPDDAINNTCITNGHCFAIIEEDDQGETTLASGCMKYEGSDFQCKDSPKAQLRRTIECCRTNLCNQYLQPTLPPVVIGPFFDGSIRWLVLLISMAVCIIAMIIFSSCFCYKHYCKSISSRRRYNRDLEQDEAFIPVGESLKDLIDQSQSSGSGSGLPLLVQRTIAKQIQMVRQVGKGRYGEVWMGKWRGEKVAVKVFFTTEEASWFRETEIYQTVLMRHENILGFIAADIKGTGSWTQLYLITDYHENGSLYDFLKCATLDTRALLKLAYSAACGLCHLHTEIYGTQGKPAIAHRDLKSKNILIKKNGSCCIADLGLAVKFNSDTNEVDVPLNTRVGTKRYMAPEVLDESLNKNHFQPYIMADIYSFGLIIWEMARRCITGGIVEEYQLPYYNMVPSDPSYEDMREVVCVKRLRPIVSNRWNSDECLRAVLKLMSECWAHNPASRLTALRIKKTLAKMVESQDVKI
Chain of human ALK2 (Q04771 21-509): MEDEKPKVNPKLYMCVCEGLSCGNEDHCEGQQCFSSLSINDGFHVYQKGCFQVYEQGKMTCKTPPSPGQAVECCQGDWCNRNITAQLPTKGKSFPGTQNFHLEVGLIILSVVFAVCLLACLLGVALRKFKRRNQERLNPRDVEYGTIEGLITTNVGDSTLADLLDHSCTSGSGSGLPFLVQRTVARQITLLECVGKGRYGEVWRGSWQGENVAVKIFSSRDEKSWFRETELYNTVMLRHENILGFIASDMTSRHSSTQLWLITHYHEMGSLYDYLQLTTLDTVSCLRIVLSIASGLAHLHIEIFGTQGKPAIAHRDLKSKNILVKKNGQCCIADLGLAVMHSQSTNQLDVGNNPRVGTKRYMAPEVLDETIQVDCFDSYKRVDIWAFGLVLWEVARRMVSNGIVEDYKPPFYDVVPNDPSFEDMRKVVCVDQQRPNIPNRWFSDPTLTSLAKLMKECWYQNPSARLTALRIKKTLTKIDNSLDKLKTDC

Consider `CCn1cc(-c2ccnc(Nc3ccc(C(=O)N4CCN(c5ccc(F)cc5)CC4)cc3)n2)c(-c2cccnc2)n1` [Example 3, (4-((4-(1-ethyl-3-(pyridin-3-yl)-1H-pyrazol-4-yl)pyrimidin-2-yl)amino)phenyl)(4-(4-fluorophenyl)piperazin-1-yl)methanone], for which the IC50 in assay [1] was 26.7 nM; in assay [3], 24.2 nM. Besides, the inhibition at 0.3 µM in assay [2] amounted to 52%; in assay [4], 79.6%.

With `CCn1cc(-c2ccnc(Nc3ccc4c(c3)CCNC4)n2)c(-c2cccnc2)n1` [Example 168, N-(4-(1-ethyl-3-(pyridin-3-yl)-1H-pyrazol-4-yl)pyrimidin-2-yl)-1,2,3,4-tetrahydroisoquinolin-6-amine], the IC50 stood at 1.5 nM in assay [1] and 43 nM in assay [3]. In addition, the inhibition at 0.3 µM was 67.3% in assay [2] and 93.9% in assay [4].

For the molecule `c1cncc(-c2nn(C3COC3)cc2-c2ccnc(Nc3ccc(N4CCNCC4)cc3)n2)c1` [Example 137, 4-(1-(Oxetan-3-yl)-3-(pyridin-3-yl)-1H-pyrazol-4-yl)-N-(4-(piperazin-1-yl)phenyl)pyrimidin-2-amine], the IC50 in assay [1] is 35.6 nM; in assay [3] it was 46.2 nM. Also, the results for the inhibition at 0.3 µM in assay [2] and in assay [4] were 47.9% and 85.3%, respectively.

As to `CCn1cc(-c2ccnc(Nc3ccc4c(c3)CCN(C(C)=O)C4)n2)c(-c2cccnc2)n1` [Example 75, 1-(6-((4-(1-Ethyl-3-(pyridin-3-yl)-1H-pyrazol-4-yl)pyrimidin-2-yl)amino)-3,4-dihydroisoquinolin-2(1H)-yl)ethan-1-one], the IC50 is 14.8 nM in assay [1] and 28 nM in assay [3]. The inhibition at 0.3 µM in assay [2] was found to be 67.5%; in assay [4], 92.9%.

On to `CCn1cc(-c2ccnc(Nc3ccc4c(c3)CCN(CCOC)C4)n2)c(-c2cccnc2)n1` [Example 126, N-(4-(1-Ethyl-3-(pyridin-3-yl)-1H-pyrazol-4-yl)pyrimidin-2-yl)-2-(2-methoxyethyl)-1,2,3,4-tetrahydroisoquinolin-6-amine], for which the IC50 was 4 nM in assay [1] and 15 nM in assay [3]. Further, the inhibition at 0.3 µM in assay [2] came to 59%; in assay [4] it was 85%.

For `CCn1cc(-c2ccnc(Nc3ccc(C4CCNCC4)cc3)n2)c(-c2cccnc2)n1` [Example 162, 4-(1-Ethyl-3-(pyridin-3-yl)-1H-pyrazol-4-yl)-N-(4-(piperidin-4-yl)phenyl)pyrimidin-2-amine], the IC50 in assay [1] was determined as 4.5 nM; in assay [3], 25 nM. Also, the inhibition at 0.3 µM is 49.5% in assay [2] and 94.2% in assay [4].

With `CCn1cc(-c2ccnc(Nc3ccc(-c4cnn(C5CCNCC5)c4)cc3)n2)c(-c2cccnc2)n1` [Example 167, 4-(1-Ethyl-3-(pyridin-3-yl)-1H-pyrazol-4-yl)-N-(4-(1-(piperidin-4-yl)-1H-pyrazol-4-yl)phenyl)pyrimidin-2-amine], the concentration for half-maximal inhibition (IC50) was 12.4 nM in assay [1] and 36.1 nM in assay [3]. Besides, the results for the inhibition at 0.3 µM in assay [2] and in assay [4] were 67.5% and 92.2%, respectively.

For `COCCn1cc(-c2ccnc(Nc3ccc(N4CCNCC4)cc3)n2)c(-c2cccnc2)n1` [Example 71, 4-(1-(2-methoxyethyl)-3-(pyridin-3-yl)-1H-pyrazol-4-yl)-N-(4-(piperazin-1-yl)phenyl)pyrimidin-2-amine], the IC50 was found to be 22.8 nM in assay [1] and 40 nM in assay [3]. Further, the inhibition at 0.3 µM worked out at 48% in assay [2] and 76% in assay [4].

For `CCn1cc(-c2ccnc(Nc3ccc4c(c3)CN(CCO)CC4)n2)c(-c2cccnc2)n1` [Example 179, 2-(7-((4-(1-ethyl-3-(pyridin-3-yl)-1H-pyrazol-4-yl)pyrimidin-2-yl)amino)-3,4-dihydroisoquinolin-2(1H)-yl)ethan-1-ol], the half-maximal inhibitory concentration (IC50) in assay [1] was 5.7 nM; in assay [3] it was 31 nM. For the same molecule, the inhibition at 0.3 µM in assay [2] turned out to be 62.4%; in assay [4], 94.3%.

Regarding `CCn1cc(-c2ccnc(Nc3ccc4c(c3)CCN(C(=O)CO)C4)n2)c(-c2cccnc2)n1` [Example 175, 1-(6-((4-(1-Ethyl-3-(pyridin-3-yl)-1H-pyrazol-4-yl)pyrimidin-2-yl)amino)-3,4-dihydroisoquinolin-2(1H)-yl)-2-hydroxyethan-1-one], the 50% inhibitory concentration (IC50) came out at 10.8 nM in assay [1] and 46.8 nM in assay [3]. Also, the inhibition at 0.3 µM in assay [2] was found to be 74.6%; in assay [4] it was 93.6%.

With `CCn1cc(-c2ccnc(Nc3ccc4c(c3)CNCC4)n2)c(-c2cccnc2)n1` [Example 169, N-(4-(1-ethyl-3-(pyridin-3-yl)-1H-pyrazol-4-yl)pyrimidin-2-yl)-1,2,3,4-tetrahydroisoquinolin-7-amine], the results for the IC50 in assay [1] and in assay [3] were 1.6 nM and 18 nM, respectively. Besides, the inhibition at 0.3 µM is 66.6% in assay [2] and 96.5% in assay [4].

In the case of `FC(F)Cn1cc(-c2ccnc(Nc3ccc(N4CCNCC4)cc3)n2)c(-c2cccnc2)n1` [Example 149, 4-(1-(2,2-Difluoroethyl)-3-(pyridin-3-yl)-1H-pyrazol-4-yl)-N-(4-(piperazin-1-yl)phenyl)pyrimidin-2-amine], the IC50 was found to be 9.1 nM in assay [1] and 62.5 nM in assay [3]. Also, the values for the inhibition at 0.3 µM in assay [2] and in assay [4] were 63.5% and 86.5%, respectively.

Take `CCn1cc(-c2ccnc(Nc3ccc(N4CCN(CCOC)CC4)cc3)n2)c(-c2cccnc2)n1` [Example 17, 4-(1-ethyl-3-(pyridin-3-yl)-1H-pyrazol-4-yl)-N-(4-(4-(2-methoxyethyl)piperazin-1-yl)phenyl)pyrimidin-2-amine]: the half-maximal inhibitory concentration (IC50) in assay [1] amounted to 22.6 nM; in assay [3], 54 nM. Further, the figures for the inhibition at 0.3 µM in assay [2] and in assay [4] were 50.4% and 88%, respectively.

Regarding `CCn1cc(-c2ccnc(Nc3ccc4c(c3)CCN(C)C4)n2)c(-c2cccnc2)n1` [Example 129, N-(4-(1-Ethyl-3-(pyridin-3-yl)-1H-pyrazol-4-yl)pyrimidin-2-yl)-2-methyl-1,2,3,4-tetrahydroisoquinolin-6-amine], the IC50 in assay [1] was 1.8 nM; in assay [3], 33 nM. The inhibition at 0.3 µM in assay [2] is 55.7%; in assay [4], 92.2%.

`CC(C)(C)n1cc(-c2ccnc(Nc3ccc(N4CCNCC4)cc3)n2)c(-c2cccnc2)n1` [Example 135]: the 50% inhibitory concentration (IC50) in assay [1] is 11.7 nM; in assay [3], 54 nM. The inhibition at 0.3 µM turned out to be 60% in assay [2] and 77% in assay [4].

For `c1cncc(-c2nn(C3COC3)cc2-c2ccnc(Nc3ccc(N4CCN(C5COC5)CC4)cc3)n2)c1` [Example 101, 4-(1-(oxetan-3-yl)-3-(pyridin-3-yl)-1H-pyrazol-4-yl)-N-(4-(4-(oxetan-3-yl)piperazin-1-yl)phenyl)pyrimidin-2-amine], the concentration for half-maximal inhibition (IC50) in assay [1] worked out at 70.8 nM; in assay [3], 18 nM. Further, the results for the inhibition at 0.37 µM in assay [2] and in assay [4] were 48.8% and 70.4%, respectively.

As to `CCn1cc(-c2ccnc(Nc3ccc(N4CCCCC4)cc3)n2)c(-c2cccnc2)n1` [Example 49, 4-(1-ethyl-3-(pyridin-3-yl)-1H-pyrazol-4-yl)-N-(4-(piperidin-1-yl)phenyl)pyrimidin-2-amine], the IC50 in assay [1] was determined as 28.1 nM; in assay [3] it was 67 nM. Further, the inhibition at 0.3 µM in assay [2] is 52.2%; in assay [4], 91.6%.

On to `CCn1cc(-c2ccnc(Nc3ccc4c(c3)CCNCC4)n2)c(-c2cccnc2)n1` [Example 171, N-(4-(1-Ethyl-3-(pyridin-3-yl)-1H-pyrazol-4-yl)pyrimidin-2-yl)-2,3,4,5-tetrahydro-1H-benzo [d] azepin-7-amine], for which the IC50 in assay [1] was determined as 1.3 nM; in assay [3], 17 nM. Further, the results for the inhibition at 0.3 µM in assay [2] and in assay [4] were 67.1% and 98.3%, respectively.

`CCn1cc(-c2ccnc(Nc3ccc(N4CCNCC4)nc3)n2)c(-c2cccnc2)n1` [Example 155, 4-(1-Ethyl-3-(pyridin-3-yl)-1H-pyrazol-4-yl)-N-(6-(piperazin-1-yl)pyridin-3-yl)pyrimidin-2-amine]: the IC50 in assay [1] is 8.5 nM; in assay [3], 57 nM. Further, the inhibition at 0.37 µM in assay [2] worked out at 48.8%; in assay [4] it was 86.5%.
